From US8969516B2, “Method of hydrolysis of peptide bond” (priority 2006, dated 2015)

Test: MALDI-TOF screening of Ni^2+ dependent hydrolysis in a combinatorial peptide library
Type: physicochemical
Conditions: CH3CO-Gly-Ala-Thr-X-His-Z-Lys-Phe-Leu-NH2 library, Ni^2+ 2 mM, pH 8.2, 10 mM Tris, score=24/tm
Outline: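 Peptide sublibraries CH3CO-Gly-Ala-Ser/Thr-X-His-Z-Lys-Phe-Leu-NH2 (1 mM total) incubated with 2 mM Ni^2+ in 10 mM Tris pH 8.2 at 37 °C and 45 °C. Hydrolysis products, plus loss of substrate signals, detected by MALDI-TOF at 2, 4, 6 and 8 h; residues X and Z scored and ranked.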

Row | Substance | hydrolysis score from MALDI-TOF screening (37° C.) | hydrolysis score from MALDI-TOF screening (45° C.)
1 | Ac-GATSHAKFL-NH2 [TSHA] | 0 (a score of 0 if no trace of the product of hydrolysis was seen after 8 hours of incubation) | 0 (a score of 0 if no trace of the product of hydrolysis was seen after 8 hours of incubation)
2 | Ac-GATSHDKFL-NH2 [TSHD] | 0 (a score of 0 if no trace of the product of hydrolysis was seen after 8 hours of incubation) | 0 (a score of 0 if no trace of the product of hydrolysis was seen after 8 hours of incubation)
3 | Ac-GATSHEKFL-NH2 [TSHE] | 0 (a score of 0 if no trace of the product of hydrolysis was seen after 8 hours of incubation) | 0 (a score of 0 if no trace of the product of hydrolysis was seen after 8 hours of incubation)
4 | Ac-GATSHFKFL-NH2 [TSHF] | 0 (a score of 0 if no trace of the product of hydrolysis was seen after 8 hours of incubation) | 0 (a score of 0 if no trace of the product of hydrolysis was seen after 8 hours of incubation)
5 | Ac-GATSHGKFL-NH2 [TSHG] | 0 (a score of 0 if no trace of the product of hydrolysis was seen after 8 hours of incubation) | 0 (a score of 0 if no trace of the product of hydrolysis was seen after 8 hours of incubation)
6 | Ac-GATSHHKFL-NH2 [TSHH] | 0 (a score of 0 if no trace of the product of hydrolysis was seen after 8 hours of incubation) | 0 (a score of 0 if no trace of the product of hydrolysis was seen after 8 hours of incubation)
7 | Ac-GATSHIKFL-NH2 [TSHI] | 0 (a score of 0 if no trace of the product of hydrolysis was seen after 8 hours of incubation) | 0 (a score of 0 if no trace of the product of hydrolysis was seen after 8 hours of incubation)
8 | Ac-GATSHKKFL-NH2 [TSHK] | 0 (a score of 0 if no trace of the product of hydrolysis was seen after 8 hours of incubation) | 0 (a score of 0 if no trace of the product of hydrolysis was seen after 8 hours of incubation)
9 | Ac-GATSHLKFL-NH2 [TSHL] | 0 (a score of 0 if no trace of the product of hydrolysis was seen after 8 hours of incubation) | 0 (a score of 0 if no trace of the product of hydrolysis was seen after 8 hours of incubation)
10 | Ac-GATSHMKFL-NH2 [TSHM] | 0 (a score of 0 if no trace of the product of hydrolysis was seen after 8 hours of incubation) | 0 (a score of 0 if no trace of the product of hydrolysis was seen after 8 hours of incubation)
11 | Ac-GATSHNKFL-NH2 [TSHN] | 0 (a score of 0 if no trace of the product of hydrolysis was seen after 8 hours of incubation) | 0 (a score of 0 if no trace of the product of hydrolysis was seen after 8 hours of incubation)
12 | Ac-GATSHPKFL-NH2 [TSHP] | 0 (a score of 0 if no trace of the product of hydrolysis was seen after 8 hours of incubation) | 0 (a score of 0 if no trace of the product of hydrolysis was seen after 8 hours of incubation)
13 | Ac-GATSHQKFL-NH2 [TSHQ] | 0 (a score of 0 if no trace of the product of hydrolysis was seen after 8 hours of incubation) | 0 (a score of 0 if no trace of the product of hydrolysis was seen after 8 hours of incubation)
14 | Ac-GATSHRKFL-NH2 [TSHR] | 0 (a score of 0 if no trace of the product of hydrolysis was seen after 8 hours of incubation) | 0 (a score of 0 if no trace of the product of hydrolysis was seen after 8 hours of incubation)
15 | Ac-GATSHSKFL-NH2 [TSHS] | 0 (a score of 0 if no trace of the product of hydrolysis was seen after 8 hours of incubation) | 0 (a score of 0 if no trace of the product of hydrolysis was seen after 8 hours of incubation)
16 | Ac-GATSHTKFL-NH2 [TSHT] | 0 (a score of 0 if no trace of the product of hydrolysis was seen after 8 hours of incubation) | 0 (a score of 0 if no trace of the product of hydrolysis was seen after 8 hours of incubation)
17 | Ac-GATSHVKFL-NH2 [TSHV] | 0 (a score of 0 if no trace of the product of hydrolysis was seen after 8 hours of incubation) | 0 (a score of 0 if no trace of the product of hydrolysis was seen after 8 hours of incubation)
18 | Ac-GATSHWKFL-NH2 [TSHW] | 0 (a score of 0 if no trace of the product of hydrolysis was seen after 8 hours of incubation) | 0 (a score of 0 if no trace of the product of hydrolysis was seen after 8 hours of incubation)

Row | Substance | hydrolysis score from MALDI-TOF screening (37° C.) | hydrolysis score from MALDI-TOF screening (45° C.)
19 | Ac-GATSHYKFL-NH2 [TSHY] | 0 (a score of 0 if no trace of the product of hydrolysis was seen after 8 hours of incubation) | 0 (a score of 0 if no trace of the product of hydrolysis was seen after 8 hours of incubation)
20 | Ac-GATTHAKFL-NH2 [TTHA] | 0 (a score of 0 if no trace of the product of hydrolysis was seen after 8 hours of incubation) | 0 (a score of 0 if no trace of the product of hydrolysis was seen after 8 hours of incubation)
21 | Ac-GATTHDKFL-NH2 [TTHD] | 0 (a score of 0 if no trace of the product of hydrolysis was seen after 8 hours of incubation) | 0 (a score of 0 if no trace of the product of hydrolysis was seen after 8 hours of incubation)
22 | Ac-GATTHEKFL-NH2 [TTHE] | 0 (a score of 0 if no trace of the product of hydrolysis was seen after 8 hours of incubation) | 0 (a score of 0 if no trace of the product of hydrolysis was seen after 8 hours of incubation)
23 | Ac-GATTHFKFL-NH2 [TTHF] | 0 (a score of 0 if no trace of the product of hydrolysis was seen after 8 hours of incubation) | 0 (a score of 0 if no trace of the product of hydrolysis was seen after 8 hours of incubation)
24 | Ac-GATTHGKFL-NH2 [TTHG] | 0 (a score of 0 if no trace of the product of hydrolysis was seen after 8 hours of incubation) | 0 (a score of 0 if no trace of the product of hydrolysis was seen after 8 hours of incubation)
25 | Ac-GATTHHKFL-NH2 [TTHH] | 0 (a score of 0 if no trace of the product of hydrolysis was seen after 8 hours of incubation) | 0 (a score of 0 if no trace of the product of hydrolysis was seen after 8 hours of incubation)
26 | Ac-GATTHIKFL-NH2 [TTHI] | 0 (a score of 0 if no trace of the product of hydrolysis was seen after 8 hours of incubation) | 0 (a score of 0 if no trace of the product of hydrolysis was seen after 8 hours of incubation)
27 | Ac-GATTHKKFL-NH2 [TTHK] | 0 (a score of 0 if no trace of the product of hydrolysis was seen after 8 hours of incubation) | 0 (a score of 0 if no trace of the product of hydrolysis was seen after 8 hours of incubation)
28 | Ac-GATTHLKFL-NH2 [TTHL] | 0 (a score of 0 if no trace of the product of hydrolysis was seen after 8 hours of incubation) | 0 (a score of 0 if no trace of the product of hydrolysis was seen after 8 hours of incubation)
29 | Ac-GATTHMKFL-NH2 [TTHM] | 0 (a score of 0 if no trace of the product of hydrolysis was seen after 8 hours of incubation) | 0 (a score of 0 if no trace of the product of hydrolysis was seen after 8 hours of incubation)
30 | Ac-GATTHNKFL-NH2 [TTHN] | 0 (a score of 0 if no trace of the product of hydrolysis was seen after 8 hours of incubation) | 0 (a score of 0 if no trace of the product of hydrolysis was seen after 8 hours of incubation)
31 | Ac-GATTHPKFL-NH2 [TTHP] | 0 (a score of 0 if no trace of the product of hydrolysis was seen after 8 hours of incubation) | 0 (a score of 0 if no trace of the product of hydrolysis was seen after 8 hours of incubation)
32 | Ac-GATTHQKFL-NH2 [TTHQ] | 0 (a score of 0 if no trace of the product of hydrolysis was seen after 8 hours of incubation) | 0 (a score of 0 if no trace of the product of hydrolysis was seen after 8 hours of incubation)
33 | Ac-GATTHRKFL-NH2 [TTHR] | 0 (a score of 0 if no trace of the product of hydrolysis was seen after 8 hours of incubation) | 3 (a score of 3 for detection at 8 hours)
34 | Ac-GATTHSKFL-NH2 [TTHS] | 0 (a score of 0 if no trace of the product of hydrolysis was seen after 8 hours of incubation) | 0 (a score of 0 if no trace of the product of hydrolysis was seen after 8 hours of incubation)
35 | Ac-GATTHTKFL-NH2 [TTHT] | 0 (a score of 0 if no trace of the product of hydrolysis was seen after 8 hours of incubation) | 0 (a score of 0 if no trace of the product of hydrolysis was seen after 8 hours of incubation)
36 | Ac-GATTHVKFL-NH2 [TTHV] | 0 (a score of 0 if no trace of the product of hydrolysis was seen after 8 hours of incubation) | 0 (a score of 0 if no trace of the product of hydrolysis was seen after 8 hours of incubation)
